Test results as given in PMC7618453, “Calcium Competitive Inhibition of Langerin by Thiazolopyrimidinones” (Journal of Medicinal Chemistry, 2025).

What was measured:
[1] = Solubility assessment using 1H NMR; type: physicochemical; conditions: DSS reference, titrated from DMSO stock into protein buffer
Procedure: The compounds were dissolved in 100 mM DMSO and titrated into the same buffer solution where the protein was stored for different essays. DSS was used as the reference with a concentration of 100 µM. The integration and chemical shift of the ligand signals were monitored as indicators of potential aggregation. The solubility of compounds 1, 2, 3 were reported elsewhere. 1
Figure S1. Solubility assessment of compound 3 and 5 using 1H NMR. Compound […]
with the expected ratio relative to DSS, indicating its solubility at 1 mM in aqueous […]
(1 picture or pasted object on this page, not shown here)

langerin = conditions: previous results using more elaborate structures from this series (reference number not given); cited from earlier work
murine langerin CRD [2] = molecular target: T1, murine langerin CRD (Mus musculus, UniProt Q8VBX4); test: ITC titration of inhibitors into murine langerin CRD; type: binding; conditions: for Kd: ITC, 278.15 K; for Ligand efficiency (LE): based on the best affinities from both conditions (Ca2+ present/absent), Gibbs free energy / number of non-hydrogen atoms
T1 construct: Murine langerin CRD (amino acids: 191–331) was cloned; made in house; host or cells: E. coli BL21
T1 sequence (Q8VBX4 191-331): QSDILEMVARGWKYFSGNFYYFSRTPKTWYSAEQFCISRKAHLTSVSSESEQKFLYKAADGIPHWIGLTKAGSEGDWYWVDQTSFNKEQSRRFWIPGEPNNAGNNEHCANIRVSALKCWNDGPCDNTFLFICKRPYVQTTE
Procedure: Isothermal titration calorimetry experiments were performed using a PEAQ-ITC from Malvern or a Nano ITC from TA Instruments at 278.15 K. Langerin CRD in 25 mM MES/NaOH pH = 6.0 with 40 mM NaCl was injected in the sample cell (total volume 170–300 μL, receptor concentration 80–100 μM) of the device. The titrant was dissolved in the same buffer as the protein and added in 20 steps of 2.5 μL (first injection, 1.2 μL; total volume, 50 μL) while stirring at 350 rpm. The differential heat of each injection was measured and plotted against the molar ratio. All thermograms were integrated using NITPIC, the titration curves were fitted using SEDPHAT with error estimates using the confidence interval, and all figures were made in GUSSI.
For Ca^2+ titration, calcium chloride solutions were prepared in 25 mM MES/NaOH, 40 mM NaCl in the syringe. Langerin CRD was dialyzed against 25 mM MES/NaOH, 40 mM NaCl with 10 mM EDTA, and subsequently 25 mM MES/NaOH, 40 mM NaCl, to remove Ca^2+ before loading into the sample cell. The thermogram of Ca^2+ titration was fitted with the One-Site (independent) model. In the Ca^2+ present titration set up, the protein was in 25 mM MES/NaOH, 40 mM NaCl with 5 mM calcium chloride, and 5% DMSO in the sample cell. The ligand concentration was set to 0.1–2 mM, depending on the solubility, and dissolved in the same buffer as the protein. The raw data were fitted using either the One-Site (independent) model or the Competitive Binding model. Affinity and enthalpy data of Ca^2+ binding to langerin were extracted from the Ca^2+ titration and applied in the Competitive Binding model subsequently. In the Ca^2+ absent titration set up: ligand concentration was set to 0.1–2 mM, receptor concentration was set to 80–100 μM, both dissolved in 25 mM MES/NaOH, 40 mM NaCl with 5%DMSO. The thermogram was fitted with the one-site (independent) model.
Isothermal Titration Calorimetry (ITC)
The raw ITC data were initially processed using the default software provided by respective ITC instrument: MicroCal PEAQ-ITC Analysis Software 1.41 and Nanoanalyze Data Analysis 3.5.0. For MicroCal, the fitting model was set to One Set of Sites, with the following parameters: baseline option (time factor 5, points per injection 25), control parameter set to Fitted Offset, site value fixed at 1 and other parameters set to vary. For Nanoanalyze, blank titration files were used for area correction, fitting model set to independent, binding site n fixed at 1, and other parameters allowed to vary.
The raw data from both systems were further processed using NITPIC 2.1.0, baseline type set to Best Fit, with pre- and post-injection tail correction applied, integral significance level was adjusted based on the quality of each titration, and the outlier threshold was defined as twice of the standard deviation. The processed data were then analyzed in SEDPHAT 15.2b. For Ca2+ titration and ligand titration in the absence of Ca2+, the fitting model was set as Hetero Association A-B (Single-site model) with the global parameter log(Ka) and dHAB set as vary. For ligand titration in the presence of Ca2+, the fitting model was set as Competing B and C for A (Competitive binding model) with the global parameter log(KAC) and dHAC set as the data obtained from Ca2+ titration (4.336 and -8.2 kcal/mol), and log(KAB) and dHAB as vary. Experimental parameters for titration were defined as Titrating B into AC. Final presentation of the […]

murine langerin CRD [3] = molecular target: T1, murine langerin CRD; test: 43Ca NMR assay of Ca2+ binding to langerin in the presence of inhibitors; design: Chemical shift δ (Table S1, 43Ca NMR) / Linewidth ∆ν (Table S1, 43Ca NMR): unit not given here; conditions: Ca2+ + langerin + 400 μM inhibitor, pH 6.0; for Chemical shift δ (Table S1, 43Ca NMR): free 0.175, langerin-bound 0.116; for Linewidth ∆ν (Table S1, 43Ca NMR): free 0.89, langerin only 1.94; for Integral (relative to the ligand present free state) (Table S1, 43Ca NMR): free 1, langerin only 0.147
Procedure: ^43Ca NMR samples contain 50 μM langerin CRD in 25 mM MES/NaOH and 40 mM NaCl, pH 6.0, with 2.5 mM ^43CaCl2 (elemental calcium enriched to 57.9%, prepared from CaCO3 by hydrolysis with conc. HClaq followed by drying under vacuum; repeated three times), 400 μM compound, and 10% D2O. The negative controls contain the same components except for the protein. The positive control has 5 mM EDTA for fully chelating 2.5 mM Ca^2+ in 25 mM MES/NaOH and 40 mM NaCl. A spectrum width between 50 and −50 ppm was chosen. NMR spectra were measured at 25 °C on a 500 MHz Bruker NEO spectrometer equipped with a BBO probe. The carrier frequency was set to 0 ppm, and spectra were recorded with a recovery delay of […] and 1024 scans. All experiments were carried out with constant concentrations, volumes, receiver gains, and numbers of averaged FIDs.
Data processing and visualization were performed using TopSpin 4.4.0 (Bruker BioSpin GmbH, Rheinstetten, Germany) and MestReNova 10.0 (Mestrelab Research, Santiago de Compostela, Spain). Spectra were processed using an exponential window function with 1.00 Hz, zero-filled to a final size of 32,768 points (from an original FID size of 3,424), and baseline-corrected using spline. Parameter extraction was performed on data fitted without a window function to ensure an unbiased representation of the spectral features. […]

murine langerin CRD [4] = molecular target: T1, murine langerin CRD; test: 19F R2-filtered NMR assay with carbohydrate reporter ManNAcF3; type: binding; conditions: 25 mM MES/NaOH, 40 mM NaCl, 5 mM CaCl2, pH 6.0; 50 μM protein; read-out: K D of the carbohydrate reporter
Procedure: ^19F-NMR and ^19F-R2-filtered NMR experiments were conducted on a Bruker UltraShield 500 MHz spectrometer at 298 K. Spectra were processed in MestReNova 12.0, and data analysis was performed with GraphPad Prism version 10.2.0 for Windows (GraphPad Software, Boston, Massachusetts, USA, www.graphpad.com). Relaxation rates R 2,obs were determined with the CPMG pulse sequence, eq shown below. T represents the relaxation time, and I 0 is the integral at a T value of 0 s. The relaxation delay d 1 was set to 2.0 s, the acquisition time t acq was set to 0.87 s, and the frequency of 180° pulses νCPMG was set to 500 Hz. I=I0e^−R2,obsT 2
The KD value of the reporter was determined in a titration experiment at five concentrations [L]T with 50 μM protein. Samples were prepared via serial dilution. The K D and the R 2,b value of the reporter molecule were derived from eq by detection of the ^19F NMR relaxation rate R 2,obs in a two-parameter fit. R 2,b represents the relaxation rate in the bound state of the ligand, and p b is the bound fraction of the ligand, while [P]T represents the concentration of the receptor. The relaxation rate of the free ligand R 2,f was measured at 0.1 mM in the absence of the receptor. […]
Due to the complex equilibrium and competition effects present in the competitive binding experiments, EC50 values were utilized to quantify the inhibition degree. […]

murine langerin = conditions: in the presence of Ca^2+; previously reported, previous screening campaign (reference number not given); read-out: previously reported affinities; cited from earlier work
[5] = 5 mM CaCl2, 25 mM MES/NaOH pH 6.0, 40 mM NaCl, 5% DMSO, mean ± standard error of fit, read-out: K D [single-site model] (A + B↔AB), Ca^2+ present
[6] = 5 mM CaCl2, pH 6.0, 5% DMSO, competition between inhibitor and Ca2+ assumed, read-out: K D [competitive binding model] (A + B + C ↔ AB + C ↔ AC + B), Ca^2+ present
[7] = Ca2+-depleted protein, 25 mM MES/NaOH pH 6.0, 40 mM NaCl, 5% DMSO, read-out: K D [single-site model] (A + B ↔ AB), Ca^2+ absent

| Solubility in aqueous buffer [1] | Kd (murine langerin CRD [2]; [5]) [µM] | Kd (murine langerin CRD [2]; [6]) [µM] | Kd (murine langerin CRD [2]; [7]) [µM] | Ligand efficiency (LE) (murine langerin CRD [2]) [kcal·mol^–1·HA^–1] | Chemical shift δ (Table S1, 43Ca NMR) (murine langerin CRD [3]) | Linewidth ∆ν (Table S1, 43Ca NMR) (murine langerin CRD [3]) | Integral (relative to the ligand present free state) (Table S1, 43Ca NMR) (murine langerin CRD [3]) | Kd (murine langerin CRD [4]) [mM] | solubility ([1]; aqueous protein storage buffer, aqueous buffer, kinetic from dmso stock) [µM] | Structure (SMILES) | Competition with Ca^2+ (langerin) | Kd (murine langerin) [µM] |
| --- | --- | --- | --- | --- | --- | --- | --- | --- | --- | --- | --- | --- |
| partial solubility | – | – | – | – | – | – | – | – | – | O=C(O)c1cnc2ccccn2c1=O [Compound 5, 4-oxo-4H-pyrido[1,2-a]pyrimidine-3-carboxylic acid] | – | – |
| – | – | – | – | – | – | – | – | – | – | O=C(NCCc1cn2c(n1)SCC2)c1cnc2sccn2c1=O [N-(2-(2,3-dihydroimidazo[2,1-b]-thiazol-6-yl)-ethyl)-5-oxo-5H-thiazolo[3,2-a]-pyrimidine-6-carboxamide] | did not show competition with Ca^2+ | – |
| – | 8500 ± 2000 | 480 ± 70 | 200 ± 90 | 0.27 | 0.174 | 1.64 | 0.316 | – | – | NCCNC(=O)c1cnc2ccccn2c1=O [Compound 4, N-(2-Aminoethyl)-4-oxo-4H-pyrido[1,2-a]pyrimidine-3-carboxamide] | – | – |
| – | – | – | – | – | – | – | – | 28 ± 5 | – | C#CCO[C@H]1O[C@H](CO)[C@@H](O)[C@H](O)[C@@H]1NC(=O)C(F)(F)F [ManNAcF3] | – | – |
| – | – | – | 1100 ± 300 | 0.31 | 0.173 | 2.80 | 0.355 | – | – | O=C(O)c1cnc2sccn2c1=O [Compound 1] | – | 700 |
| – | 400 ± 70 | 81 ± 12 | 19 ± 2 | 0.46 | 0.154 | 1.79 | 0.324 | – | – | Cc1csc2ncc(C(=O)O)c(=O)n12 [Compound 2] | – | 1200 |
| – | 150 ± 40 | 17 ± 4 | 53 ± 8 | 0.44 | 0.139 | 1.78 | 0.344 | – | ≥ 1000 | Cc1sc2ncc(C(=O)O)c(=O)n2c1C [Compound 3] | – | 900 |
